In brackets after ≈: the same amount, converted by molar mass.
Key:
[1] = biological target: T1, Enoyl-[acyl-carrier-protein] reductase [NADPH] FabI (Staphylococcus aureus) (UniProt Q6GI75); assay: Inhibition of N-terminal his 6 tagged Staphylococcus aureus Fabi (1 to […] residues) expressed in Escherichia coli BL21 at 10 uM incubated for 30 mins in presence of NADPH by fluorescence based microplate reader analysis relative to control
T1 sequence (whole entry): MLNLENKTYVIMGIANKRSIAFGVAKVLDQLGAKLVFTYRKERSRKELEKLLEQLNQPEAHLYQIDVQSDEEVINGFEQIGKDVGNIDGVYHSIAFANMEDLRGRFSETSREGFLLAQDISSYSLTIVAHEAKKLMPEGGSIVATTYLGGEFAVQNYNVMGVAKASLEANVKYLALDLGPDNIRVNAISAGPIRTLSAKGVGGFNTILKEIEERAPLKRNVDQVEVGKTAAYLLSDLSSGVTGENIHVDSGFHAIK

[2] = biological target: T1, Enoyl-[acyl-carrier-protein] reductase [NADPH] FabI (Staphylococcus aureus); assay: Inhibition of N-terminal his 6 tagged Staphylococcus aureus Fabi (1 to […] residues) expressed in Escherichia coli BL21 at 1 uM incubated for 30 mins in presence of NADPH by fluorescence based microplate reader analysis relative to control
[3] = biological target: T2, Enoyl-[acyl-carrier-protein] reductase [NADPH] FabI (Staphylococcus aureus, UniProt Q6GI75); assay: Inhibition of N-terminal his 6 tagged Staphylococcus aureus Fabi (1 to […] residues) expressed in Escherichia coli BL21 incubated for 30 mins in presence of NADPH by fluorescence based microplate reader analysis
T2 sequence (Q6GI75 whole entry): T1 sequence (whole entry)

[4] = Inhibition of N-terminal his 6 tagged Escherichia coli Fabi (1 to 789 residues) expressed in Escherichia coli BL21 incubated for 30 mins in presence of NADH by fluorescence based microplate reader analysis
[5] = Inhibition of N-terminal his 6 tagged Acinetobacter baumannii Fabi (1 to 804 residues) expressed in Escherichia coli BL21 incubated for 30 mins in presence of NADH by fluorescence based microplate reader analysis
[6] = system: Staphylococcus aureus; assay: Antimicrobial activity against […] Staphylococcus aureus ATCC33591 measured after 24 hrs by CLSI protocol based microdilution method; type: functional
[7] = system: Staphylococcus aureus; assay: Antimicrobial activity against […] Staphylococcus aureus ATCC43300 measured after 24 hrs by CLSI protocol based microdilution method; type: functional
[8] = system: Staphylococcus aureus; assay: Antimicrobial activity against […] Staphylococcus aureus USA300 measured after 24 hrs by CLSI protocol based microdilution method; type: functional
[9] = system: Staphylococcus aureus; assay: Antimicrobial activity against […] Staphylococcus aureus NRS271 measured after 24 hrs by CLSI protocol based microdilution method; type: functional
[10] = system: Staphylococcus aureus; assay: Antimicrobial activity against methicillin-susceptible Staphylococcus aureus ATCC29213 measured after 24 hrs by CLSI protocol based microdilution method; type: functional
[11] = system: Staphylococcus aureus; assay: Antimicrobial activity against methicillin-susceptible Staphylococcus aureus ATCC25923 measured after 24 hrs by CLSI protocol based microdilution method; type: functional
[12] = system: Enterococcus faecium; assay: Antimicrobial activity against Enterococcus faecium ATCC19434 measured after 24 hrs by CLSI protocol based microdilution method; type: functional
[13] = system: Enterococcus faecalis; assay: Antimicrobial activity against Enterococcus faecalis ATCC29212 measured after 24 hrs by CLSI protocol based microdilution method; type: functional
[14] = system: Pseudomonas aeruginosa; assay: Antimicrobial activity against Pseudomonas aeruginosa PAO1 measured after 24 hrs by CLSI protocol based microdilution method; type: functional
[15] = system: Escherichia coli; assay: Antimicrobial activity against Escherichia coli ATCC25922 measured after 24 hrs by CLSI protocol based microdilution method; type: functional
[16] = system: Acinetobacter baumannii; assay: Antimicrobial activity against Acinetobacter baumannii ATCC19606 measured after 24 hrs by CLSI protocol based microdilution method; type: functional
[17] = system: Candida albicans; assay: Antimicrobial activity against Candida albicans SC5314 measured after 48 hrs by CLSI protocol based microdilution method; type: functional
[18] = Cytotoxicity against HEK293 cells assessed as survival rate at 400 uM measured after 48 hrs by CCK-8 method relative to control; type: toxicity, cell-based; settings: human, read-out: Survival
[19] = system: HepG2; assay: Cytotoxicity against human HepG2 cells assessed as survival rate at 400 uM measured after 48 hrs by CCK-8 method relative to control; type: functional; settings: read-out: Survival
[20] = Cytotoxicity against HEK293 cells assessed as survival rate at 800 uM measured after 48 hrs by CCK-8 method relative to control; type: toxicity, cell-based; settings: human, read-out: Survival
[21] = system: HepG2; assay: Cytotoxicity against human HepG2 cells assessed as survival rate at 800 uM measured after 48 hrs by CCK-8 method relative to control; type: functional; settings: read-out: Survival
[22] = Hemolytic activity in sheep erythrocytes assessed as hemolysis at 64 ug/ml incubated for 1 hr by microplate reader based analysis relative to control; type: toxicity, cell-based, Ovis aries, Erythrocyte; settings: at 64 µg/mL, read-out: Activity
[23] = Hemolytic activity in sheep erythrocytes assessed as hemolysis at 128 ug/ml incubated for 1 hr by microplate reader based analysis relative to control; type: toxicity, cell-based, Ovis aries, Erythrocyte; settings: at 128 µg/mL, read-out: Activity
[24] = Hemolytic activity in sheep erythrocytes assessed as hemolysis at 256 ug/ml incubated for 1 hr by microplate reader based analysis relative to control; type: toxicity, cell-based, Ovis aries, Erythrocyte; settings: at 256 µg/mL, read-out: Activity
[25] = Hemolytic activity in sheep erythrocytes assessed as hemolysis incubated for 1 hr by microplate reader based analysis; type: toxicity, cell-based, Ovis aries, Erythrocyte
[26] = system: Staphylococcus aureus; assay: Antimicrobial activity against Staphylococcus aureus measured after 24 hrs by CLSI protocol based microdilution method; type: functional
[27] = Selectivity index, ratio of HC50 for sheep erythrocytes to MIC for Staphylococcus aureus; type: toxicity; settings: read-out: Selectivity Index
[28] = system: Staphylococcus aureus; assay: Antimicrobial activity against […] Staphylococcus aureus ATCC33591 assessed as reduction in DNA content measured after 4 hrs by microplate reader based analysis; type: functional
[29] = biological target: T1, Enoyl-[acyl-carrier-protein] reductase [NADPH] FabI (Staphylococcus aureus); assay: Inhibition of N-terminal his 6 tagged Staphylococcus aureus Fabi (1 to […] residues) expressed in Escherichia coli BL21 at 2.5 uM incubated for 30 mins in presence of NADPH by fluorescence based microplate reader analysis relative to control

Compound: Cn1c(C2CC(=O)N(c3cccc(Br)c3Cl)C2)nc2ccccc21 (stereo unspecified)
- inhibition [1]: 97.4%
- inhibition [2]: 80.3%
- IC50 [3]: 331 nM
- IC50 [4]: 35.9 nM
- IC50 [5]: 266 nM
- MIC [6]: 2 µg/mL (≈ 4.94 µM)
- MIC [7]: 2 µg/mL (≈ 4.94 µM)
- MIC [8]: 1 µg/mL (≈ 2.47 µM)
- MIC [9]: 4 µg/mL (≈ 9.88 µM)
- MIC [10]: 2 µg/mL (≈ 4.94 µM)
- MIC [11]: 1 µg/mL (≈ 2.47 µM)
- MIC [12]: > 32 µg/mL
- MIC [13]: > 32 µg/mL
- MIC [14]: > 32 µg/mL
- MIC [15]: > 32 µg/mL
- MIC [16]: > 32 µg/mL
- MIC [17]: > 32 µg/mL
- viability at 48 h, 400 µM [18]: > 70%
- viability at 400 µM [19]: > 70%
- viability at 48 h, 800 µM [20]: > 75%
- viability at 800 µM [21]: > 75%
- hemolysis at 1 h, 64 ug/ml [22]: 2.8%
- hemolysis at 1 h, 128 ug/ml [23]: 4.7%
- hemolysis at 1 h, 256 ug/ml [24]: 10.6%
- HC50 at 1 h [25]: > 256 µg/mL
- MIC [26]: 1 µg/mL (≈ 2.47 µM)
- selectivity ratio [27]: > 64

Compound: C[C@H]1COc2c(N3CCN(C)CC3)c(F)cc3c(=O)c(C(=O)O)cn1c23 [LEVOFLOXACIN ANHYDROUS]
- MIC [28]: 1 µg/mL (≈ 2.77 µM)

Compound: Cc1cccc(N2CC(c3nc4ccccc4n3C)CC2=O)c1C (stereo unspecified)
- inhibition [1]: 95.7%
- inhibition [2]: 53.1%
- IC50 [3]: 977 nM
- inhibition [29]: 76.8%
- MIC [6]: 8 µg/mL (≈ 25 µM)
- MIC [7]: 16 µg/mL (≈ 50.1 µM)
- MIC [8]: 16 µg/mL (≈ 50.1 µM)
- MIC [9]: 16 µg/mL (≈ 50.1 µM)
- MIC [10]: 8 µg/mL (≈ 25 µM)
- MIC [11]: 8 µg/mL (≈ 25 µM)
- MIC [12]: > 32 µg/mL
- MIC [13]: > 32 µg/mL
- MIC [14]: > 32 µg/mL
- MIC [15]: > 32 µg/mL
- MIC [16]: > 32 µg/mL
- MIC [17]: > 32 µg/mL

Compound: Cc1c(Cl)cccc1N1CC(c2nc3ccccc3n2C)CC1=O (stereo unspecified)
- inhibition [1]: 99.1%
- inhibition [2]: 76.8%
- IC50 [3]: 429 nM
- IC50 [4]: 35.9 nM
- IC50 [5]: 266 nM
- MIC [6]: 2 µg/mL (≈ 5.89 µM)
- MIC [7]: 2 µg/mL (≈ 5.89 µM)
- MIC [8]: 4 µg/mL (≈ 11.8 µM)
- MIC [9]: 4 µg/mL (≈ 11.8 µM)
- MIC [10]: 2 µg/mL (≈ 5.89 µM)
- MIC [11]: 2 µg/mL (≈ 5.89 µM)
- MIC [12]: > 32 µg/mL
- MIC [13]: > 32 µg/mL
- MIC [14]: > 32 µg/mL
- MIC [15]: > 32 µg/mL
- MIC [16]: > 32 µg/mL
- MIC [17]: > 32 µg/mL
- viability at 48 h, 400 µM [18]: > 70%
- viability at 400 µM [19]: > 70%
- viability at 48 h, 800 µM [20]: > 65%
- viability at 800 µM [21]: > 65%
- hemolysis at 1 h, 64 ug/ml [22]: 3.8%
- hemolysis at 1 h, 128 ug/ml [23]: 6.9%
- hemolysis at 1 h, 256 ug/ml [24]: 13.2%
- HC50 at 1 h [25]: > 256 µg/mL
- MIC [26]: 2 µg/mL (≈ 5.89 µM)
- selectivity ratio [27]: > 64
